1 compound from patent US20180290977A1, “KDM4 INHIBITORS” (Albert-Ludwigs-University Freiburg, priority 2017, published 2018) can be followed below.

Common to all, as to assay type: cell-based, human
The test system of assay [1] is BCSC2 cells. In words: Anchorage-independent sphere formation assay (methylcellulose). The conditions noted are these: erlotinib 1 μM or 10 μM (FIG. 7G).
Procedure: (§1) For the cancer stem-cell spheroid assay in methylcellulose, cells were detached by ACCUTASE solution and counted. 3×10^3 single BCSC1 and 1×10^3 single BCSC2 cells were seeded into individual wells of 96-well ultra-low attachment plates (CORNING, #3474) in serum-free MSC medium containing 1% methylcellulose (Sigma-Aldrich, #M0512).
Assay [2] has as its system BCSC1 cells. In words: BCSC cell proliferation / dose-response assay. The conditions noted are these: erlotinib, 10 μM (FIG. 7B).
Procedure: (§2) For dose-response assays, cells were detached by ACCUTASE solution dissociation and counted. […] After incubation at 37° C. for 30 min to solidify the [sequence], 1×10^3 single cells were seeded per 384-well in 40 μL medium. […] Following 96 hr of incubation under normal culture conditions, the cells were washed once with PBS and fixed with ice-cold methanol for at least 15 min at −20° C. After another washing step with PBS, cells were stained with DAPI (Sigma-Aldrich) and read-out with the ScanR microscope-based imaging platform (Olympus Deutschland GmbH, Hamburg, Del.). Total DAPI cell nuclear counts per well were determined.
(§3) For the cell proliferation assays, BCSCs tagged with a stable NLS-mCherry fluorescent signal (nuclear localization peptide) were used for this assay. Cells were detached by ACCUTASE dissociation and counted. Each well of a black 384-well plate (Greiner) was coated with 10 μL of MSC medium containing 2% [sequence]. After incubation at 37° C. for 30 min to solidify the [sequence], 1×10^3 single cells/well were seeded in 40 μL medium. […] Afterwards, the first readout with the ScanR microscope-based imaging platform (Olympus) was started, assessing mCherry-fluorescent cell nuclei in nine sectors of each well under 60% humidity and 5% CO2. This readout was repeated every 24 hr for 7 days. […]
For assay [3], the system named is BCSC1 cells. In words: Anchorage-independent sphere formation assay (methylcellulose). The conditions noted are these: erlotinib 1 μM or 10 μM (FIG. 7F).
Procedure: as §1
In assay [4] the test system is BCSC2 cells. In words: BCSC cell proliferation / dose-response assay. The conditions noted are these: erlotinib, 10 μM (FIG. 7C).
Procedure: as §2, §3

On to `C#Cc1cccc(Nc2ncnc3cc(OCCOC)c(OCCOC)cc23)c1` [erlotinib], for which the 3D-colony forming capacity entry in assay [1] and in assay [3] was “dramatically reduced” each time. Also, in assay [2], the “proliferation of BCSC1 cells” value was “blocked”. For the same compound, the “proliferation of BCSC2 cells” value in assay [4] is “blocked”.
